Laboratory results: patent US11752219B2, “Substrate delivery of embedded liposomes” (NUtech Ventures, priority 2015, dated 2023)
In brackets after ≈: the same amount, converted by molar mass.

Key:
[1] = system: Cort Astro; assay: DOX potency assay (MTT); format: cell-based, rat; conditions: DOX concentration, 24-hour incubation
Method: (§1) Encapsulation of DOX into HALNPs Doxorubicin (DOX) was encapsulated inside the aqueous core of the HALNPs as described above and in Hayward et al, Sci. Rep. 2015, 5:14683. Briefly, a vial of lyophilized HALNPs (0.5 mg lipid) was brought to room temperature, and rehydrated with 1/10th its original pre-lyophilized volume of 0.05×PBS containing 250 μg DOX. Following a thirty minute incubation time to allow for lipid membrane re-assembly, the vial was brought back to its full pre-lyophilized volume with 1×PBS and ultracentrifuged to remove non-encapsulated DOX (140,000 g, 4° C., and 1.25 hr.). The auto-fluorescent property of DOX was then used to determine the entrapment payload. […]
(§2) To determine the effect of free DOX and HALNPDOX on the cell viability of Cort Astro, MG and A172 cells, an MTT assay was utilized as described herein to calculate the lethal concentration to kill 50% of the cells (see also, e.g., Hayward et al, Sci. Rep. 2015, 5:14683; Wilson et al, Nanoscale, 2015, 7:18477-18488; Natarajan et al, PLOS One, 2015, 10:e0134541). […] The cells were then lysed with acidified IPA and the absorbance of the produced formazan crystals was measured using a Beckman Coulter AD340 plate reader (Indianapolis, Ind., USA). Percent viability was determined by normalization of the 570/620 absorbance ratio to the control untreated cells and positive control dead cells (ethanol treated).

[2] = system: A172; assay: DOX potency assay (MTT); format: cell-based; conditions: DOX concentration, 24-hour incubation
Method: as §1, §2

[3] = system: MG; assay: DOX potency assay (MTT); format: cell-based, mouse; conditions: DOX concentration, 24-hour incubation
Method: as §1, §2

[4] = system: 21MT-1 metastatic breast cancer cells; assay: Doxorubicin potency assay (MTT); format: cell-based, human; conditions: DOX concentration, 24 hours
Method: The DOX concentration lethal to 50% of the 21MT-1 cells (LC50) was determined utilizing the MTT (3-(4,5-[…])2,5-diphenyl tetrazolium bromide) assay kit from Life Technologies (Carlsbad, Calif., USA). This colorimetric assay assesses cell health as a function of the mitochondrial conversion of MTT salt to Formazan. A two-step procedure was implemented for precise loading of DOX into the HALNPs and then into the HALNP-PEM platform.
First a solution of […] of DOX in 0.05×PBS was used to rehydrate a lyophilized vial of HALNPs and excess (un-encapsulated) DOX was removed using ultracentrifugation (140,000 g, 1.25 hrs, 4° C.). […] The initial vial of HALNPs (1 mg Total Lipid) concentration was known, thus both the total amount of encapsulated DOX and lipid were fully determined. […]
21MT-1 cells were seeded at a density of 32,000 cells/well in three 48 well plates with different DOX configurations: 1) PEM platform with embedded HALNPDOX [(PLL/SPS)4.5(HALNPDOX)(PLL/SPS)2.5], 2) Bolus form HALNPDOX, and 3) free non-encapsulated DOX. […] Cells were then lysed with lysis buffer (acidified IPA) and the absorbance was measured at 570 and 620 nm using a Beckman Coulter AD340 plate reader (Indianapolis, Ind., USA). Percent viability was determined by normalization of the 570/620 absorbance ratio to the control untreated cells and positive control dead cells.

Structure (SMILES): COc1cccc2c1C(=O)c1c(O)c3c(c(O)c1C2=O)C[C@@](O)(C(=O)CO)C[C@@H]3O[C@H]1C[C@H](N)[C@H](O)[C@H](C)O1 [Free DOX, doxorubicin]
- LC50 values [1]: 0.322 ± 0.053 µg/mL (≈ 0.592 µM)
- LC50 values [2]: 0.193 ± 0.030 µg/mL (≈ 0.355 µM)
- LC50 values [3]: 0.267 ± 0.050 µg/mL (≈ 0.491 µM)
- LC50 [4]: 0.191 ± 0.0301 µg/mL (≈ 0.351 µM)
